Read-outs that look alike come from different tables or passages of the source. One block for each compound: values may come before it. Where a SMILES comes first, the peptide text is derived from it. [ ]: non-standard residue; d: D form. pY = N[C@@H](Cc1ccc(OP(=O)(O)O)cc1)C(=O)O
Tests used:
[1] = target: T1, wild-type SBC (SOCS2-ElonginB-ElonginC) (Homo sapiens, UniProt O14508+Q15369+Q15370); experiment: SPR direct binding, wild-type SBC immobilized on the chip; details: mean ± s.e.m., four independent experiments
T1 construct: His6 (N, cleaved yes); made in house; host or cells: E. coli BL21(DE3)
Procedure: (§1) Biotinylated wild-type SBC and mutants were immobilized onto a chip surface and injected a series of seven concentrations (0.08, 0.25, 0.7, 2.2, 6.7, 20 and 60 μM) of peptide across the sensor surface for 60 s contact time and 120 sec dissociation time at 30 μl min^−1 flow rate. Data analysis was carried out using Biacore Evaluation Software (GE Healthcare). All data were double-referenced for reference surface and blank injection. The processed sensograms were fit to a steady-state affinity using a 1:1 binding model for KD estimation (raw data shown in Supplementary Figs. 10–15).

[2] = target: SBC (SOCS2-ElonginB-ElonginC) (Homo sapiens, UniProt O14508+Q15369+Q15370); experiment: 19F ligand-observed CPMG NMR displacement of spy molecule 3
Source text: In the ^19F NMR displacement assay, the fluorine signal of a purposely-designed reporter ligand (also referred to as spy molecule) was monitored as a mean to quantify the extent of the competition between the tested peptides and the spy molecule. A Carr-Purcell-Meiboom-Gill (CPMG) pulse sequence was applied to estimate the spin–spin relaxation time (T2) of the spy molecule in the absence and presence of protein[43]–[45]. By adding competitor to disrupt the protein-spy interaction, the binding affinity of a competitor can be calculated based on the degree of displacement of the spy[46],[47].
All NMR experiments were conducted using AV-500 MHz Bruker spectrometer equipped with a 5 mm CPQCI 1H/19F/13C/15N/D Z-GRD cryoprobe) at 298 K. Spectra were recorded using 80 scans of a CPMG pulse sequence that attenuates broad resonances. […] The transmitter frequency was placed close to the resonance of O1 = −35451 Hz (−75.3 ppm). […] All NMR data were processed and analyzed using TopSpin (Bruker).
The dissociation constant of peptides (Ki) was calculated by adapting the method described by Wang et al.[47] Briefly, peptides’ Ki values were obtained from the equation below:1 Ki=([P0]-[PI]-[PL])([I0]-[PI])/[PI] where [I0] and [P0] are the total concentrations of the competitor (peptide inhibitor) and protein, respectively, used in the experiment, while [PI] and [PL] are the free concentrations of protein–peptide and protein–spy complexes, which are unknown.
To determine [PL] the following equation was used:2 IF-II/IF-IP=[PL]/[PL0] where IF is the measured integral of the fluorine peak of the spy molecule free in solution; IP is the integral of the same signal in the presence of protein; II is the integral of the same signal in the presence of protein and competing peptide; and [PL0] is the concentration of protein-spy complex in the absence of competitor, which was calculated using the following equation:3 [PL0]=[P0]+[L0]+KD-([P0]+[L0]+KD)^2-4[P0][L0]/2 where [L0] is the total concentrations of spy molecule used in the experiment, and KD is the dissociation constant of the protein-spy complex (determined by ITC). To determine [PI] the following equation was used: 4 [PL]=[P0]+[L0]+KD-[PI]-([P0]+[L0]+KD-[PI])^2-4([P0]-[PI])[L0]/2 where [PL] was determined as described above (Equation 2).

[3] = target: T2, SOCS2-EloB-EloC ternary (SBC) complex (Homo sapiens, UniProt O14508+Q15369+Q15370); experiment: Isothermal titration calorimetry (ITC), ligand titrated into SBC; format: binding
T2 construct: His6 (N, cleaved yes); made in house; host or cells: E. coli BL21(DE3)
Procedure: The ITC titration consisted of 0.4 μl initial injection (discarded during data analysis) followed by 19 of 2 μl injections at 120 s interval between injections. […] Binding data was subtracted from a control titration where peptide was titrated into buffer, and fitted using a one-set-of-site binding model to obtain dissociation constants, binding enthalpy (ΔH), and stoichiometry (N) using MicroCal ITC-ORIGIN Analysis Software 7.0 (Malvern).

SBC with SOCS2 N94D = target: T3, SBC with SOCS2 N94D (Homo sapiens, UniProt O14508+Q15369+Q15370, N94D); experiment: SPR, SNP mutant SBC immobilized; format: binding; details: source data of Table 3, N94D
T3 construct: His6 (N, cleaved yes); made in house; host or cells: E. coli BL21(DE3)
Procedure: (§2) Protein expression was induced with isopropyl β-d-1-thiogalactopyranoside at 18 °C for 12 h. […] SBC was finally purified by size-exclusion chromatography on a Superdex 75 16/600 column (GE Healthcare) in 25 mM HEPES, pH 7.5, 250 mM NaCl and 10 mM DTT.
as §1

SBC with SOCS2 R96L = target: T4, SBC with SOCS2 R96L (Homo sapiens, UniProt O14508+Q15369+Q15370, R96L); experiment: SPR, SNP mutant SBC immobilized; format: binding; details: for SPR KD: source data of Table 3, R96L
T4 construct: His6 (N, cleaved yes); made in house; host or cells: E. coli BL21(DE3)
Procedure: as §2, §1

SBC with SOCS2 L106V = target: T5, SBC with SOCS2 L106V (Homo sapiens, UniProt O14508+Q15369+Q15370, L106V); experiment: SPR, SNP mutant SBC immobilized; format: binding; details: read-out: SPR dissociation constant KD
T5 construct: His6 (N, cleaved yes); made in house; host or cells: E. coli BL21(DE3)
Procedure: as §2, §1

SBC with SOCS2 R96Q = target: T6, SBC with SOCS2 R96Q (Homo sapiens, UniProt O14508+Q15369+Q15370, R96Q); experiment: SPR, SNP mutant SBC immobilized; format: binding; details: for SPR KD: source data of Table 3, R96Q
T6 construct: His6 (N, cleaved yes); made in house; host or cells: E. coli BL21(DE3)
Procedure: as §2, §1

[4] = Table 2, biotinylated wild-type SBC immobilized, peptide 0.08-60 μM, 20 mM HEPES pH7.5, 150 mM NaCl, 1 mM TCEP, 0.005% Tween20, 10 °C, steady-state 1:1 model, read-out: SPR KD
[5] = read-out: SPR dissociation constant KD

T3 sequence (O14508 32-198 N94D): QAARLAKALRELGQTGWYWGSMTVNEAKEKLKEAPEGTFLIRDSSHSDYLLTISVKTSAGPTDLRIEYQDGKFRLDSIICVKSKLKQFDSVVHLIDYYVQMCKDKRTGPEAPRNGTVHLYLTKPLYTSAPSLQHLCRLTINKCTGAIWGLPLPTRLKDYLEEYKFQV
T3 sequence (Q15370 1-104 partner limits assumed): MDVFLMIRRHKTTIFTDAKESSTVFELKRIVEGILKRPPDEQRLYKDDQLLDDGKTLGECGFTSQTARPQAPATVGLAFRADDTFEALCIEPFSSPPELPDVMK
T3 sequence (Q15369 17-112 partner limits assumed): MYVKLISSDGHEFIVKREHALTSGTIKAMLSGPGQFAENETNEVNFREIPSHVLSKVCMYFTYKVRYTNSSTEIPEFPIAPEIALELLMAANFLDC
T4 sequence (O14508 32-198 R96L): as the sequence (O14508 32-198 N94D) above, with D63N, R65L counted along it
T4 sequence (Q15370 1-104 partner limits assumed): as the sequence (Q15370 1-104 partner limits assumed) above
T4 sequence (Q15369 17-112 partner limits assumed): as the sequence (Q15369 17-112 partner limits assumed) above
T6 sequence (O14508 32-198 R96Q): as the sequence (O14508 32-198 N94D) above, with D63N, R65Q counted along it
T6 sequence (Q15370 1-104 partner limits assumed): as the sequence (Q15370 1-104 partner limits assumed) above
T6 sequence (Q15369 17-112 partner limits assumed): as the sequence (Q15369 17-112 partner limits assumed) above
SBC (SOCS2-ElonginB-ElonginC), sequence (O14508 32-198): as the sequence (O14508 32-198 N94D) above, with D63N counted along it
SBC (SOCS2-ElonginB-ElonginC), sequence (Q15370 1-104 partner limits assumed): as the sequence (Q15370 1-104 partner limits assumed) above
SBC (SOCS2-ElonginB-ElonginC), sequence (Q15369 17-112 partner limits assumed): as the sequence (Q15369 17-112 partner limits assumed) above
T1 sequence (O14508 32-198): as the sequence (O14508 32-198 N94D) above, with D63N counted along it
T1 sequence (Q15370 1-104 partner limits assumed): as the sequence (Q15370 1-104 partner limits assumed) above
T1 sequence (Q15369 17-112 partner limits assumed): as the sequence (Q15369 17-112 partner limits assumed) above
T5 sequence (O14508 32-198 L106V): as the sequence (O14508 32-198 N94D) above, with D63N, L75V counted along it
T5 sequence (Q15370 1-104 partner limits assumed): as the sequence (Q15370 1-104 partner limits assumed) above
T5 sequence (Q15369 17-112 partner limits assumed): as the sequence (Q15369 17-112 partner limits assumed) above
T2 sequence (O14508 32-198): as the sequence (O14508 32-198 N94D) above, with D63N counted along it
T2 sequence (Q15370 1-104 partner limits assumed): as the sequence (Q15370 1-104 partner limits assumed) above
T2 sequence (Q15369 17-112 partner limits assumed): as the sequence (Q15369 17-112 partner limits assumed) above

SMILES: CC[C@H](C)[C@H](NC(=O)[C@H](C)NC(=O)[C@@H](NC(=O)[C@H](CO)NC(=O)[C@@H](NC(=O)[C@H](Cc1ccc(OP(=O)(O)O)cc1)NC(=O)[C@H](CC(=O)O)NC(=O)[C@@H]1CCCN1C(=O)[C@@H](NC(=O)[C@@H]1CCCN1)C(C)C)[C@@H](C)O)[C@@H](C)CC)C(=O)N[C@H](C(N)=O)C(C)C [PVPDpYTSIAIV] (H-PVPD[pY]TSIAIV-NH2)
- Kd [1, 4]: 6.7 ± 0.78 µM

SMILES: CC[C@H](C)[C@H](NC(=O)[C@@H](NC(=O)[C@H](Cc1ccc(OP(=O)(O)O)cc1)NC(=O)[C@H](CCC(=O)O)NC(=O)[C@H](Cc1ccccc1)NC(=O)[C@H](CO)NC(=O)[C@H](C)N)[C@@H](C)O)C(=O)N[C@@H](CC(C)C)C(=O)N[C@@H](C)C(=O)N1CCC[C@H]1C(=O)N[C@@H](CO)C(N)=O [ASFEpYTILAPS] (H-ASFE[pY]TILAPS-NH2)
- Kd [1, 4]: 18 ± 0.91 µM
- Ki [2]: 14.1 ± 1.74 µM

SMILES: CC[C@H](C)[C@H](NC(=O)[C@@H](NC(=O)[C@H](Cc1ccc(OP(=O)(O)O)cc1)NC(=O)[C@H](C)NC(=O)[C@H](Cc1ccccc1)NC(=O)[C@H](CO)NC(=O)[C@H](C)N)[C@@H](C)O)C(=O)N[C@@H](CC(C)C)C(=O)N[C@@H](CC(=O)O)C(=O)N1CCC[C@H]1C(=O)N[C@@H](CO)C(N)=O [ASFApYTILDPS] (H-ASFA[pY]TILDPS-NH2)
- Kd [1, 4]: 21.7 ± 1.49 µM

SMILES: CC[C@H](C)[C@H](NC(=O)[C@H](Cc1c[nH]cn1)NC(=O)[C@H](C)NC(=O)[C@H](CO)NC(=O)[C@@H](NC(=O)[C@H](Cc1ccc(OP(=O)(O)O)cc1)NC(=O)[C@H](CC(=O)O)NC(=O)[C@@H]1CCCN1C(=O)[C@@H](NC(=O)[C@@H]1CCCN1)C(C)C)[C@@H](C)O)C(=O)N[C@H](C(N)=O)C(C)C [PVPDpYTSAHIV] (H-PVPD[pY]TSAHIV-NH2)
- Ki [2]: 3.4 ± 0.66 µM

SMILES: CC[C@H](C)[C@H](NC(=O)[C@H](CO)NC(=O)[C@H](C)NC(=O)[C@H](Cc1ccc(OP(=O)(O)O)cc1)NC(=O)[C@H](CC(=O)O)NC(=O)[C@@H]1CCCN1C(=O)[C@@H](NC(=O)[C@@H]1CCCN1)C(C)C)C(=O)N[C@@H](Cc1c[nH]cn1)C(=O)N[C@H](C(=O)N[C@H](C(N)=O)C(C)C)[C@@H](C)CC [PVPDpYASIHIV] (H-PVPD[pY]ASIHIV-NH2)
- Kd [1, 4]: 1 ± 0.09 µM
- Ki [2]: 0.5 ± 0.07 µM

SMILES: CC(C)C[C@H](NC(=O)[C@H](C)NC(=O)[C@@H](NC(=O)[C@H](Cc1ccc(OP(=O)(O)O)cc1)NC(=O)[C@H](CCC(=O)O)NC(=O)[C@H](Cc1ccccc1)NC(=O)[C@H](CO)NC(=O)[C@H](C)N)[C@@H](C)O)C(=O)N[C@@H](CC(=O)O)C(=O)N1CCC[C@H]1C(=O)N[C@@H](CO)C(N)=O [ASFEpYTALDPS] (H-ASFE[pY]TALDPS-NH2)
- Ki [2]: 17.2 ± 0.89 µM

Other lines, results leading:

- Ki [2]: 3.4 ± 0.25 µM
SMILES: CC[C@H](C)[C@H](NC(=O)[C@H](CO)NC(=O)[C@@H](NC(=O)[C@H](Cc1ccc(OP(=O)(O)O)cc1)NC(=O)[C@H](CC(=O)O)NC(=O)[C@@H]1CCCN1C(=O)[C@H](C)NC(=O)[C@@H]1CCCN1)[C@@H](C)O)C(=O)N[C@@H](Cc1c[nH]cn1)C(=O)N[C@H](C(=O)N[C@H](C(N)=O)C(C)C)[C@@H](C)CC [PAPDpYTSIHIV]

- Kd [1, 4]: 1.9 ± 0.09 µM
SMILES: CC[C@H](C)[C@H](NC(=O)[C@H](Cc1c[nH]cn1)NC(=O)[C@@H](NC(=O)[C@H](CO)NC(=O)[C@@H](NC(=O)[C@H](Cc1ccc(OP(=O)(O)O)cc1)NC(=O)[C@H](CC(=O)O)NC(=O)[C@@H]1CCCN1C(=O)[C@@H](NC(=O)[C@@H]1CCCN1)C(C)C)[C@@H](C)O)[C@@H](C)CC)C(=O)N[C@@H](C)C(N)=O [PVPDpYTSIHIA]

- Ki [2]: 0.9 ± 0.17 µM
SMILES: CC[C@H](C)[C@H](NC(=O)[C@H](CO)NC(=O)[C@@H](NC(=O)[C@H](Cc1ccc(OP(=O)(O)O)cc1)NC(=O)[C@H](CC(=O)O)NC(=O)[C@@H]1CCCN1C(=O)[C@@H](NC(=O)[C@H](C)N)C(C)C)[C@@H](C)O)C(=O)N[C@@H](Cc1c[nH]cn1)C(=O)N[C@H](C(=O)N[C@H](C(N)=O)C(C)C)[C@@H](C)CC [AVPDpYTSIHIV]

- Kd ([1]; Table 3, wild-type SOCS2 (SBC), 10 °C, read-out: SPR dissociation constant KD): 5.1 ± 0.77 µM
- Kd [3]: 2300 nM
- SPR KD (SBC with SOCS2 N94D; replicate 1): weak
- SPR KD (SBC with SOCS2 N94D; replicate 2): weak
- SPR KD (SBC with SOCS2 N94D; replicate 3): weak
- SPR KD (SBC with SOCS2 N94D; replicate 4): weak
- Kd (SBC with SOCS2 R96L; [5]): > 60 µM
- SPR KD (SBC with SOCS2 R96L; replicate 1): weak
- SPR KD (SBC with SOCS2 R96L; replicate 2): weak
- SPR KD (SBC with SOCS2 R96L; replicate 3): weak
- SPR KD (SBC with SOCS2 R96L; replicate 4): weak
- Kd (SBC with SOCS2 L106V): 8.9 ± 0.7 µM
- Kd (SBC with SOCS2 R96Q; [5]): > 60 µM
- SPR KD (SBC with SOCS2 R96Q; replicate 1): nb
- SPR KD (SBC with SOCS2 R96Q; replicate 2): nb
- SPR KD (SBC with SOCS2 R96Q; replicate 3): nb
- SPR KD (SBC with SOCS2 R96Q; replicate 4): nb
SMILES: CC[C@H](C)[C@H](NC(=O)[C@H](CC(=O)O)NC(=O)[C@H](CO)NC(=O)[C@@H](NC(=O)[C@H](CCC(N)=O)NC(=O)[C@H](C)NC(=O)[C@H](Cc1ccc(OP(=O)(O)O)cc1)NC(=O)[C@H](Cc1ccccc1)NC(=O)[C@H](CC(=O)O)NC(=O)[C@@H](NC(=O)[C@@H](N)CC(N)=O)[C@@H](C)CC)C(C)C)C(N)=O [GHR_pY487] (H-NIDF[pY]AQVSDI-NH2)

- Kd [1, 4]: 9 ± 1.05 µM
SMILES: CC[C@H](C)[C@H](NC(=O)[C@H](CO)NC(=O)[C@@H](NC(=O)[C@H](Cc1ccc(OP(=O)(O)O)cc1)NC(=O)[C@H](CC(=O)O)NC(=O)[C@@H]1CCCN1C(=O)[C@H](CCCNC(=N)N)NC(=O)[C@@H]1CCCN1)[C@@H](C)O)C(=O)N[C@@H](Cc1c[nH]cn1)C(=O)N[C@H](C(=O)N[C@H](C(N)=O)C(C)C)[C@@H](C)CC [V(−3)R] (H-PRPD[pY]TSIHIV-NH2)

- Kd [1, 4]: 3.3 ± 0.13 µM
- Ki [2]: 3.3 ± 0.24 µM
SMILES: CC[C@H](C)[C@H](NC(=O)[C@H](CO)NC(=O)[C@@H](NC(=O)[C@H](Cc1ccc(OP(=O)(O)O)cc1)NC(=O)[C@H](CC(=O)O)NC(=O)[C@@H]1CCCN1C(=O)[C@H](Cc1ccc(O)cc1)NC(=O)[C@@H]1CCCN1)[C@@H](C)O)C(=O)N[C@@H](Cc1c[nH]cn1)C(=O)N[C@H](C(=O)N[C@H](C(N)=O)C(C)C)[C@@H](C)CC [V(−3)Y] (H-PYPD[pY]TSIHIV-NH2)

- Kd [1, 4]: 8.9 ± 1.25 µM
- Ki [2]: 6.9 ± 1.39 µM
SMILES: CC[C@H](C)[C@H](NC(=O)[C@@H](NC(=O)[C@H](Cc1ccc(OP(=O)(O)O)cc1)NC(=O)[C@H](CCC(=O)O)NC(=O)[C@H](Cc1ccccc1)NC(=O)[C@H](CO)NC(=O)[C@H](C)N)[C@@H](C)O)C(=O)N[C@@H](CC(C)C)C(=O)N[C@@H](CC(=O)O)C(=O)N[C@@H](C)C(=O)N[C@@H](CO)C(N)=O [ASFEpYTILDAS] (H-ASFE[pY]TILDAS-NH2)

From PMC6557900 (Nature Communications, 2019)
